# According to PubChem BioAssay AID248 (DTP/NCI, 2004):
# Several values for one entry are separate records, joined by “and”; a condition that tells them apart may be missing. Identical values can stand only once. Toxic doses and inconclusive results are not listed. Square brackets hold non-standard residues; d marks the D form. Peptide text beside a SMILES is read from it. * marks the point of attachment. ξ: configuration not given here. Cbz = O=C(OCc1ccccc1)*; ξT = CC(O)C(N)C(=O)O
# System: L1210 leukemia ip in BDF1 mice, survival T/C
# Assay: NCI In Vivo Anticancer Drug Screen. Data for tumor model L1210 Leukemia (intraperitoneal) in B6D2F1 (BDF1) mice
# Conditions: endpoint: mean survival time, higher = longer survival
# In short: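 Read-out is survival time, reported as the treated-group measurement over the vehicle-control measurement.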
# [1] = dose: 100.0 mg/kg/injection, schedule: Q04DX003 (ip), vehicle: saline with Tween-80
# [2] = dose: 200.0 mg/kg/injection, schedule: Q04DX003 (ip), vehicle: saline with Tween-80
# [3] = dose: 400.0 mg/kg/injection, schedule: Q04DX003 (ip), vehicle: saline with Tween-80
# [4] = dose: 100.0 mg/kg/injection, schedule: Q01DX009 (ip), vehicle: saline
# [5] = dose: 100.0 mg/kg/injection, schedule: Q04DX003 (ip), vehicle: saline
# [6] = dose: 200.0 mg/kg/injection, schedule: Q01DX009 (ip), vehicle: saline
# [7] = dose: 200.0 mg/kg/injection, schedule: Q04DX003 (ip), vehicle: saline
# [8] = dose: 400.0 mg/kg/injection, schedule: Q01DX009 (ip), vehicle: saline
# [9] = dose: 400.0 mg/kg/injection, schedule: Q04DX003 (ip), vehicle: saline
smiles,measurement,setting,value
N=c1c2c(C(N)=O)cn(C3OC(CO)C(O)C3O)c2ncn1O (stereo not drawn),T/C,"dose: 2.5 mg/kg/injection, schedule: Q01DX001 (ip), vehicle: saline with Tween-80",122 % of control
same,T/C,"dose: 5.0 mg/kg/injection, schedule: Q01DX001 (ip), vehicle: saline with Tween-80",117 % of control
same,T/C,"dose: 10.0 mg/kg/injection, schedule: Q01DX001 (ip), vehicle: saline with Tween-80",123 % of control
same,T/C,"dose: 10.0 mg/kg/injection, schedule: Q01DX001 (ip), vehicle: saline",153 % of control
same,T/C,"dose: 20.0 mg/kg/injection, schedule: Q01DX001 (ip), vehicle: saline",180 % of control
CCCCNC(C)(C)CSSSCC(C)(C)NCCCC,T/C,"dose: 6.25 mg/kg/injection, schedule: Q01DX009 (ip), vehicle: water",102 % of control
same,T/C,"dose: 12.5 mg/kg/injection, schedule: Q01DX009 (ip), vehicle: water",92 % of control
same,T/C,"dose: 12.5 mg/kg/injection, schedule: Q04DX003 (ip), vehicle: other",96 % of control
same,T/C,"dose: 25.0 mg/kg/injection, schedule: Q01DX009 (ip), vehicle: water",92 % of control
same,T/C,"dose: 25.0 mg/kg/injection, schedule: Q04DX003 (ip), vehicle: other",94 % of control
same,T/C,"dose: 50.0 mg/kg/injection, schedule: Q01DX009 (ip), vehicle: other",106 % of control
same,T/C,"dose: 50.0 mg/kg/injection, schedule: Q01DX009 (ip), vehicle: water",103 % of control
same,T/C,"dose: 50.0 mg/kg/injection, schedule: Q04DX003 (ip), vehicle: other",94 % of control
same,T/C,"dose: 100.0 mg/kg/injection, schedule: Q01DX009 (ip), vehicle: other",95 % of control
Nc1nc(N)c2cc(CCc3ccc(C(=O)NC(CCC(=O)O)C(=O)O)cc3)ccc2n1 (stereo not drawn),T/C,"dose: 39.0 micrograms/kg/injection, schedule: Q01DX009 (ip), vehicle: Klucel (hydroxypropylcellulose) (HPC)",111 % of control
same,T/C,"dose: 78.0 micrograms/kg/injection, schedule: Q01DX009 (ip), vehicle: Klucel (hydroxypropylcellulose) (HPC)",117 % of control
same,T/C,"dose: 156.0 micrograms/kg/injection, schedule: Q01DX009 (ip), vehicle: Klucel (hydroxypropylcellulose) (HPC)",117 % of control
same,T/C,"dose: 625.0 micrograms/kg/injection, schedule: Q01DX009 (ip), vehicle: Klucel (hydroxypropylcellulose) (HPC)",170 % of control
COC(=O)C(NC(=O)CNC(=O)OCc1ccccc1)C(C)O (stereo not drawn) (Cbz-Gly-[ξT]-OMe),T/C,[1],98 % of control
same,T/C,[2],96 % of control
same,T/C,[3],93 % of control
CCc1ccc2c(OC(C)=O)c3ccccc3c(OC(C)=O)c2c1,T/C,"dose: 100.0 mg/kg/injection, schedule: Q01DX001 (ip), vehicle: saline with Tween-80",95 % of control
same,T/C,"dose: 200.0 mg/kg/injection, schedule: Q01DX001 (ip), vehicle: saline with Tween-80",95 % of control
same,T/C,"dose: 400.0 mg/kg/injection, schedule: Q01DX001 (ip), vehicle: saline with Tween-80",93 % of control
Nc1ccccc1-c1ccccc1,T/C,"dose: 75.0 mg/kg/injection, schedule: Q01DX001 (ip), vehicle: saline",112 % of control
C/C(CCO)=N/N=C(N)N,T/C,"dose: 15.0 mg/kg/injection, schedule: Q01DX Z (ip), vehicle: methylcellulose (MC)",97 % of control
same,T/C,"dose: 30.0 mg/kg/injection, schedule: Q01DX Z (ip), vehicle: methylcellulose (MC)",109 % of control
same,T/C,"dose: 30.0 mg/kg/injection, schedule: Q01DX Z (oral), vehicle: methylcellulose (MC)",97 % of control
same,T/C,"dose: 60.0 mg/kg/injection, schedule: Q01DX Z (oral), vehicle: methylcellulose (MC)",100 % of control
O=C1CC2=CC3C=CC(N1)C2C=C3 (stereo not drawn),T/C,[1],109 % of control
same,T/C,[2],106 % of control
same,T/C,[3],109 % of control
CCOC(=O)CCCC(=O)N(CC(=O)OCC)Cc1ccccc1,T/C,[1],102 % of control
same,T/C,[2],93 % of control
same,T/C,[3],90 % of control
N#CC(CC(=O)c1ccccc1)c1ccccc1 (stereo not drawn),T/C,"dose: 100.0 mg/kg/injection, schedule: Q01DX009 (ip), vehicle: saline with Tween-80",97 % of control
same,T/C,"dose: 200.0 mg/kg/injection, schedule: Q01DX009 (ip), vehicle: saline with Tween-80",100 % of control
same,T/C,"dose: 400.0 mg/kg/injection, schedule: Q01DX009 (ip), vehicle: saline with Tween-80",107 % of control
Cc1nc(N)sc1CCCl,T/C,"dose: 36.0 mg/kg/injection, schedule: Q01DX015 (ip), vehicle: carboxymethylcellulose (CMC)",100 % of control
same,T/C,"dose: 54.0 mg/kg/injection, schedule: Q01DX015 (ip), vehicle: carboxymethylcellulose (CMC)",94 % of control
COC(=O)c1ccccc1N=NNc1ccc(C(F)(F)F)c([N+](=O)[O-])c1,T/C,[1],98 % of control
same,T/C,[2],103 % of control
same,T/C,[3],88 % of control
Cc1cccc(C)c1NC(=O)Oc1cccc2ccccc12,T/C,[4],97 % of control
same,T/C,[5],93 % of control
same,T/C,[6],95 % of control
same,T/C,[7],98 % of control
same,T/C,[8],103 % of control
same,T/C,[9],100 % of control
O=C1NC(=O)C2C3CCC(O3)C12 (stereo not drawn),T/C,"dose: 25.0 mg/kg/injection, schedule: Q04DX002 (ip), vehicle: Klucel (hydroxypropylcellulose) (HPC)",92 % of control and 98 % of control
same,T/C,"dose: 50.0 mg/kg/injection, schedule: Q04DX002 (ip), vehicle: Klucel (hydroxypropylcellulose) (HPC)",96 % of control and 102 % of control
same,T/C,"dose: 55.0 mg/kg/injection, schedule: Q01DX Z (ip), vehicle: methylcellulose (MC)",98 % of control
same,T/C,"dose: 83.0 mg/kg/injection, schedule: Q01DX Z (ip), vehicle: methylcellulose (MC)",105 % of control
same,T/C,"dose: 100.0 mg/kg/injection, schedule: Q04DX002 (ip), vehicle: Klucel (hydroxypropylcellulose) (HPC)",103 % of control and 98 % of control and 86 % of control
same,T/C,"dose: 125.0 mg/kg/injection, schedule: Q01DX Z (ip), vehicle: methylcellulose (MC)",94 % of control
same,T/C,"dose: 200.0 mg/kg/injection, schedule: Q04DX002 (ip), vehicle: Klucel (hydroxypropylcellulose) (HPC)",106 % of control
O=C(OC(=O)c1ccncc1)c1ccncc1,T/C,"dose: 75.0 mg/kg/injection, schedule: Q04DX003 (ip), vehicle: saline",94 % of control
same,T/C,"dose: 150.0 mg/kg/injection, schedule: Q04DX003 (ip), vehicle: saline",92 % of control
same,T/C,"dose: 300.0 mg/kg/injection, schedule: Q04DX003 (ip), vehicle: saline",110 % of control
NC(CSSCC(NC(=O)C(F)(F)F)C(=O)O)C(=O)O (stereo not drawn),T/C,"dose: 50.0 mg/kg/injection, schedule: Q01DX001 (ip), vehicle: saline",96 % of control
same,T/C,"dose: 100.0 mg/kg/injection, schedule: Q01DX001 (ip), vehicle: saline",98 % of control
same,T/C,"dose: 200.0 mg/kg/injection, schedule: Q01DX001 (ip), vehicle: saline",93 % of control
Cc1cccc(=O)n1CCC#N,T/C,[4],96 % of control
same,T/C,[5],101 % of control
same,T/C,[6],106 % of control
same,T/C,[7],93 % of control
same,T/C,[8],112 % of control
same,T/C,[9],106 % of control
